From patent US20060051374A1, “Compositions and methods for mucosal vaccination” (3M Innovative Properties Company, priority 2004, published 2006)

Tested on: OT-I cells
Test: Total OT-I cell numbers in lymphoid tissues and percentage in nasal mucosa at Day 7 (Example 1)
Format: in vivo, C57BL/6 mice
Procedure: An Ovalbumin-IRM1 conjugate was prepared as follows. IRM1 was suspended in dimethyl sulfoxide (DMSO) to 10 mg/ml. Ovalbumin was suspended in phosphate buffered saline (PBS) to 10 mg/ml and the pH adjusted to >10.0 by the addition of NaOH. 500 μL of the ovalbumin solution (5 mg ovalbumin) was mixed with 100 μL of the IRM1 solution (1 mg IRM1) in a single well of a 12-well tissue culture plate. The plate was placed on ice and a long wavelength UV light source was placed directly over the plate as close to the well containing the IRM1/ovalbumin mixture as possible. The mixture was irradiated for 15 minutes. […]
Chicken Ovalbumin-specific CD8^+ T cells (OT-I, The Jackson Laboratories, Bar Harbor, Me.) were labeled with carboxyfluoroscein succinimidyl ester (CFSE, Molecular Probes, Inc., Eugene, Oreg.), a fluorescent dye that stains cells in a stabile manner, and then adoptively transferred into syngenic C57BL/6 mice (Charles River Laboratories, Wilmington, Mass.). […] Cells were then run on a FACSCaliber (Becton, Dickinson, and Co., San Jose, Calif.) and CD8^+SIINFEKL/K^b tetramer^+ T cells were analyzed for CFSE expression.
Separately, total OT-I cell numbers at Day 7 were counted in nasal associated lymphoid tissue (NALT), cervical lymph node (CLN), and spleen (Spl). […] Additionally, the percentage of OT-I cells in the nasal mucosa at determined at Day 7. […]

CCOCc1nc2c(N)nc3ccccc3c2n1CC(C)(C)NC(=O)CCCCCNC(=O)c1ccc(N=[N+]=[N-])cc1O [IRM1, N-[6-({2-[4-amino-2-(ethoxymethyl)-1H-imidazo[4,5-c]quinolin-1-yl]-1,1-dimethylethyl}amino)-6-oxohexyl]-4-azido-2-hydroxybenzamide]
total OT-I cell numbers, intranasal IRM1 plus antigen versus antigen alone (Ovalbumin-IRM1 conjugate intranasal, FIG. 2): greater total OT-I cell numbers at Day 7 than antigen alone | total OT-I cell numbers, intranasal versus intravenous delivery (Ovalbumin-IRM1 conjugate, NALT, CLN, spleen, FIG. 2A-2C): greater total OT-I cell numbers at Day 7 than intravenous delivery in all lymphoid tissues examined
